Results reported in the NIST ThermoML archive (doi:10.1021/je900124n).
Values joined by “and” are separate entries in the source; they are usually repeats but may differ in a detail not shown here. Equal values may be shown once. ± gives the expanded uncertainty stated by the source.

Conditions: Fluid (supercritical or subcritical phases), Buoyancy - hydrostatic balance with magnetic suspension - two sinkers

CCC [propane]
Conditions | mass density
380 K, 4703.9 kPa | 148.078 ± 0.14 kg/m3 [middle of 5 runs]
380 K, 4705.6 kPa | 148.36 ± 0.034 kg/m3 [middle of 4 runs]
380 K, 4705.7 kPa | 148.363 ± 0.034 kg/m3
380 K, 4755.7 kPa | 155.492 ± 0.2 kg/m3 [middle of 5 runs]
380 K, 4879.5 kPa | 178.216 ± 0.068 kg/m3 and 178.213 ± 0.068 kg/m3
380 K, 4879.6 kPa | 178.236 ± 0.068 kg/m3 and 178.204 ± 0.068 kg/m3 and 178.214 ± 0.068 kg/m3
380 K, 4957.6 kPa | 197.127 ± 0.063 kg/m3
380 K, 4957.7 kPa | 197.117 ± 0.064 kg/m3 and 197.11 ± 0.064 kg/m3
380 K, 4957.8 kPa | 197.115 ± 0.064 kg/m3 [middle of 4 runs]
380 K, 4957.9 kPa | 197.119 ± 0.064 kg/m3
380 K, 5001.3 kPa | 208.689 ± 0.03 kg/m3
380 K, 5001.5 kPa | 208.739 ± 0.03 kg/m3
380 K, 5002.2 kPa | 208.955 ± 0.03 kg/m3 and 208.946 ± 0.03 kg/m3 and 208.942 ± 0.03 kg/m3
380 K, 5002.3 kPa | 208.948 ± 0.03 kg/m3 and 208.946 ± 0.03 kg/m3
380 K, 5041.6 kPa | 219.674 ± 0.038 kg/m3 and 219.68 ± 0.038 kg/m3 and 219.675 ± 0.038 kg/m3
380 K, 5041.7 kPa | 219.681 ± 0.038 kg/m3 [middle of 4 runs]
380 K, 5067.9 kPa | 226.412 ± 0.032 kg/m3 and 226.42 ± 0.032 kg/m3
380 K, 5068 kPa | 226.427 ± 0.032 kg/m3
380 K, 5068.1 kPa | 226.418 ± 0.032 kg/m3
380 K, 5141.5 kPa | 243.559 ± 0.036 kg/m3 and 243.562 ± 0.036 kg/m3 and 243.564 ± 0.036 kg/m3
380 K, 5141.6 kPa | 243.563 ± 0.036 kg/m3 [middle of 5 runs]
380 K, 5268.6 kPa | 264.989 ± 0.041 kg/m3 and 264.991 ± 0.041 kg/m3
380 K, 5268.8 kPa | 264.985 ± 0.041 kg/m3 and 264.995 ± 0.041 kg/m3
380 K, 5408.3 kPa | 280.991 ± 0.074 kg/m3 [middle of 4 runs]
380 K, 5408.4 kPa | 280.991 ± 0.074 kg/m3 and 280.992 ± 0.074 kg/m3 and 280.986 ± 0.074 kg/m3
380 K, 6684.1 kPa | 336.97 ± 0.056 kg/m3 and 336.962 ± 0.056 kg/m3
380 K, 6684.2 kPa | 336.972 ± 0.056 kg/m3
380 K, 6684.3 kPa | 336.974 ± 0.056 kg/m3 and 336.97 ± 0.056 kg/m3
380 K, 6684.4 kPa | 336.974 ± 0.056 kg/m3
380 K, 7975.3 kPa | 360.582 ± 0.047 kg/m3
380 K, 7975.4 kPa | 360.58 ± 0.047 kg/m3
380 K, 7975.5 kPa | 360.582 ± 0.047 kg/m3 [middle of 6 runs]
380 K, 7975.6 kPa | 360.58 ± 0.047 kg/m3 and 360.581 ± 0.047 kg/m3
380 K, 7975.7 kPa | 360.586 ± 0.047 kg/m3
380 K, 7975.8 kPa | 360.584 ± 0.047 kg/m3 and 360.583 ± 0.047 kg/m3
380 K, 10919 kPa | 391.154 ± 0.05 kg/m3 [middle of 4 runs]
380 K, 10920 kPa | 391.156 ± 0.05 kg/m3 and 391.155 ± 0.05 kg/m3
380 K, 11880 kPa | 398.187 ± 0.049 kg/m3 and 398.185 ± 0.049 kg/m3
380 K, 11881 kPa | 398.189 ± 0.049 kg/m3 and 398.186 ± 0.049 kg/m3
380 K, 15945 kPa | 420.987 ± 0.052 kg/m3 and 420.99 ± 0.052 kg/m3
380 K, 15946 kPa | 420.986 ± 0.052 kg/m3
380 K, 19820 kPa | 436.807 ± 0.053 kg/m3 and 436.806 ± 0.053 kg/m3
380 K, 19821 kPa | 436.811 ± 0.053 kg/m3 and 436.808 ± 0.053 kg/m3 and 436.81 ± 0.053 kg/m3
380 K, 23098 kPa | 447.702 ± 0.055 kg/m3 [middle of 5 runs]
380 K, 23099 kPa | 447.703 ± 0.055 kg/m3 and 447.702 ± 0.055 kg/m3
380 K, 23697 kPa | 449.488 ± 0.055 kg/m3 and 449.487 ± 0.055 kg/m3 and 449.489 ± 0.055 kg/m3
380 K, 29645 kPa | 465.242 ± 0.057 kg/m3 and 465.241 ± 0.057 kg/m3
380 K, 29646 kPa | 465.242 ± 0.057 kg/m3 and 465.241 ± 0.057 kg/m3
380 K, 34344 kPa | 475.596 ± 0.058 kg/m3 [middle of 4 runs]
380 K, 34345 kPa | 475.597 ± 0.058 kg/m3
380.01 K, 954.8 kPa | 14.3809 ± 0.0041 kg/m3
380.01 K, 954.81 kPa | 14.381 ± 0.0041 kg/m3
380.01 K, 3513.7 kPa | 73.3411 ± 0.055 kg/m3
380.01 K, 5268.9 kPa | 264.989 ± 0.041 kg/m3
380.01 K, 6684.6 kPa | 336.973 ± 0.056 kg/m3
380.01 K, 6684.7 kPa | 336.971 ± 0.056 kg/m3
400 K, 336.43 kPa | 4.5554 ± 0.0029 kg/m3 and 4.5553 ± 0.0029 kg/m3
400 K, 599.95 kPa | 8.2683 ± 0.0033 kg/m3
400 K, 599.96 kPa | 8.2685 ± 0.0033 kg/m3 and 8.2684 ± 0.0033 kg/m3
400 K, 956.18 kPa | 13.5094 ± 0.0039 kg/m3
400 K, 957.16 kPa | 13.5243 ± 0.0039 kg/m3
400 K, 957.89 kPa | 13.5351 ± 0.0039 kg/m3
400 K, 959.04 kPa | 13.5529 ± 0.0039 kg/m3
400 K, 962.98 kPa | 13.6116 ± 0.004 kg/m3
400 K, 1542.1 kPa | 22.7724 ± 0.024 kg/m3
400 K, 1542.2 kPa | 22.7738 ± 0.024 kg/m3 and 22.7745 ± 0.024 kg/m3
400 K, 1542.3 kPa | 22.7764 ± 0.024 kg/m3
400 K, 1542.4 kPa | 22.7771 ± 0.024 kg/m3
400 K, 2380.3 kPa | 37.7472 ± 0.028 kg/m3 and 37.7486 ± 0.028 kg/m3 and 37.7481 ± 0.028 kg/m3
400 K, 2380.5 kPa | 37.7508 ± 0.028 kg/m3 and 37.7503 ± 0.028 kg/m3
400 K, 3308.6 kPa | 57.6872 ± 0.034 kg/m3 [middle of 5 runs]
400 K, 3901.8 kPa | 73.2165 ± 0.043 kg/m3 [middle of 4 runs]
400 K, 3901.9 kPa | 73.2188 ± 0.043 kg/m3
400 K, 3902 kPa | 73.2191 ± 0.043 kg/m3
400 K, 4691.9 kPa | 99.4254 ± 0.017 kg/m3 and 99.4238 ± 0.017 kg/m3 and 99.4251 ± 0.017 kg/m3
400 K, 4692 kPa | 99.4292 ± 0.017 kg/m3 and 99.4262 ± 0.017 kg/m3
400 K, 5668.4 kPa | 147.912 ± 0.11 kg/m3
400 K, 5668.5 kPa | 147.917 ± 0.11 kg/m3 [middle of 6 runs]
400 K, 5673.1 kPa | 148.232 ± 0.03 kg/m3
400 K, 5673.2 kPa | 148.239 ± 0.03 kg/m3 and 148.234 ± 0.03 kg/m3 and 148.236 ± 0.03 kg/m3
400 K, 5673.3 kPa | 148.236 ± 0.03 kg/m3
400 K, 5676.5 kPa | 148.439 ± 0.11 kg/m3 and 148.438 ± 0.11 kg/m3
400 K, 5676.6 kPa | 148.445 ± 0.11 kg/m3 and 148.444 ± 0.11 kg/m3 and 148.437 ± 0.11 kg/m3
400 K, 5676.7 kPa | 148.447 ± 0.11 kg/m3 [middle of 8 runs]
400 K, 5676.8 kPa | 148.451 ± 0.11 kg/m3 [middle of 9 runs]
400 K, 5676.9 kPa | 148.458 ± 0.11 kg/m3 [middle of 6 runs]
400 K, 5677 kPa | 148.462 ± 0.11 kg/m3 [middle of 5 runs]
400 K, 5677.1 kPa | 148.464 ± 0.11 kg/m3 and 148.466 ± 0.11 kg/m3
400 K, 5677.2 kPa | 148.477 ± 0.11 kg/m3 and 148.472 ± 0.11 kg/m3
400 K, 5677.4 kPa | 148.487 ± 0.11 kg/m3 and 148.49 ± 0.11 kg/m3
400 K, 5677.9 kPa | 148.509 ± 0.11 kg/m3
400 K, 5678 kPa | 148.518 ± 0.11 kg/m3 and 148.516 ± 0.11 kg/m3 and 148.517 ± 0.11 kg/m3
400 K, 5678.1 kPa | 148.519 ± 0.11 kg/m3 and 148.526 ± 0.11 kg/m3 and 148.518 ± 0.11 kg/m3
400 K, 5678.2 kPa | 148.528 ± 0.11 kg/m3 [middle of 13 runs]
400 K, 5678.3 kPa | 148.528 ± 0.11 kg/m3 and 148.529 ± 0.11 kg/m3
400 K, 5781.6 kPa | 155.313 ± 0.079 kg/m3 and 155.311 ± 0.079 kg/m3
400 K, 5781.7 kPa | 155.314 ± 0.079 kg/m3 and 155.311 ± 0.079 kg/m3
400 K, 6338.3 kPa | 196.876 ± 0.11 kg/m3 and 196.877 ± 0.11 kg/m3
400 K, 6338.4 kPa | 196.877 ± 0.11 kg/m3 [middle of 5 runs]
400 K, 6338.5 kPa | 196.877 ± 0.11 kg/m3
400 K, 6630.2 kPa | 219.389 ± 0.089 kg/m3
400 K, 6630.3 kPa | 219.386 ± 0.089 kg/m3 and 219.389 ± 0.089 kg/m3
400 K, 6630.4 kPa | 219.389 ± 0.089 kg/m3 [middle of 4 runs]
400 K, 6978.6 kPa | 243.19 ± 0.06 kg/m3 and 243.192 ± 0.06 kg/m3
400 K, 6978.7 kPa | 243.193 ± 0.06 kg/m3 and 243.189 ± 0.06 kg/m3 and 243.196 ± 0.06 kg/m3
400 K, 6978.8 kPa | 243.19 ± 0.06 kg/m3
400 K, 6978.9 kPa | 243.193 ± 0.06 kg/m3
400 K, 7736.9 kPa | 280.444 ± 0.051 kg/m3 and 280.447 ± 0.051 kg/m3
400 K, 7737 kPa | 280.444 ± 0.051 kg/m3
400 K, 7737.1 kPa | 280.449 ± 0.051 kg/m3 and 280.444 ± 0.051 kg/m3
400 K, 7737.2 kPa | 280.444 ± 0.051 kg/m3
400 K, 7737.3 kPa | 280.449 ± 0.051 kg/m3 and 280.45 ± 0.051 kg/m3
400 K, 7912.9 kPa | 286.854 ± 0.051 kg/m3
400 K, 7913.2 kPa | 286.868 ± 0.051 kg/m3 and 286.866 ± 0.051 kg/m3 and 286.857 ± 0.051 kg/m3
400 K, 7913.4 kPa | 286.864 ± 0.051 kg/m3
400 K, 10112 kPa | 336.235 ± 0.048 kg/m3 [middle of 5 runs]
